# “And” between values parts separate entries of the source, which are not always exact repeats. Equal values may be shown once. Read-outs that look alike come from different tables or passages of the source.
# Legend:
# [1] = target: T1, α-glucosidase (Saccharomyces cerevisiae, UniProt P53341); assay: FTIR secondary structure analysis of α-GLU complexes; settings: enzyme–porphyrin molar ratio 1:2, amide I band
# Description: (§1) A molar ratio of 1:2 (α-amylase/α-glucosidase)–porphyrin solution was placed in a cryocentrifugal concentrator and the dried solid sample was mixed with dry KBr and measured using a Nicolet IS-50 FTIR Spectrometer (ThermoFisher, Waltham, MA, USA) with a scanning range of 4000–400 cm^−1 and a resolution of 4 cm^−1. The overlapping peaks in the amide I band (1700–1600 cm^−1) were further analyzed into multiple feature sub-peaks, and quantitative analysis of the relative content of various secondary structures in proteins using curve fitting methods was performed.
# [2] = target: T2, α-amylase (Sus scrofa, UniProt P00690); assay: Three-dimensional fluorescence spectroscopy of α-amylase complexes; settings: 298 K; TAPP 2.5, THPP 10, TCPP 10, Fe–TCPP 12.5, Ni–TCPP 17.5, Cu–TCPP 10 μg/mL
# T2 sequence (P00690 16-511): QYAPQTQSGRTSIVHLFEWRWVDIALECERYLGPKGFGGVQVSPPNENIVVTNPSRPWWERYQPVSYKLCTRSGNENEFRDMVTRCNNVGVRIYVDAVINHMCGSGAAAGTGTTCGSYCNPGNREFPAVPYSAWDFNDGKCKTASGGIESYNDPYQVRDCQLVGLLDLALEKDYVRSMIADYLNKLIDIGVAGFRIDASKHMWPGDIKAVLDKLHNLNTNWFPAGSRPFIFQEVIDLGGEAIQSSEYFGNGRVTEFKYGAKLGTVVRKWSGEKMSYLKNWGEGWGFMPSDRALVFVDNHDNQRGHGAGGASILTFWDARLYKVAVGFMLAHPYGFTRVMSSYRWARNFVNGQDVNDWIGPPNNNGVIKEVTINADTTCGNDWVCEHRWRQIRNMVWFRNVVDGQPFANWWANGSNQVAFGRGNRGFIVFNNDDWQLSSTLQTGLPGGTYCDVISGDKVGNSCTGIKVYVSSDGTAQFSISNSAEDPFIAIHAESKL
# Experimental: At 298 K, with excitation wavelengths ranging from 200 to 600 nm (2 nm increments) and emission wavelengths from 200 to 600 nm, the influence of small molecules on enzyme conformation was assessed by examining peaks in 3D fluorescence spectra [41].
# [3] = target: T1, α-glucosidase; assay: Fluorescence quenching, binding and thermodynamics with α-glucosidase; settings: for binding constants K: 310 K; for quenching mechanism of α-glucosidase fluorescence: Stern–Volmer plots; for quenching mechanism of α-glucosidase fluorescence / ΔH^0 / ΔS^0: 298–310 K; for ΔH^0 / ΔS^0: Van’t Hoff
# Experimental: In the α-amylase experiment, a series of porphyrins and amylase (200 U/L) were mixed in a volume ratio of 1:1. In the α-glucosidase experiment, the glucosidase concentration was 400 U/L, mixed in a volume ratio of 1:1; the samples were maintained at three different temperatures (298, 304, and 310 K) for 30 min, with excitation at 280 nm and emission scanning from 300 to 500 nm.
# The Stern–Volmer equation [35] was adopted to determine the quenching mechanisms between six porphyrin compounds and both enzymes in the experimental group, with Formula (6):(6) F0/F=1+Ksv[Q]=1+Kqτ0[Q]
# The Stern–Volmer equation was adapted based on experimental data to more accurately characterize the quenching behavior [36], with Formula (7):(7) F0/F=e^Ksv[Q]=e^Kqτ0[Q]
# In the formula, the fluorescence quenching ratio was calculated as F0/F, where F0 corresponds to the emission intensity of pure α-amylase solution (control) and F denotes the intensity measured after the incremental addition of porphyrin ligands. KSV and Kq denote the Stern–Volmer quenching constant and the bimolecular quenching rate constant, respectively, τ0 (10^−8 s) is the average fluorescence lifetime of the fluorophore in the absence of quencher, and [Q] indicates the concentration of porphyrin compounds.
# Due to the presence of an internal filtration effect, a decrease in the fluorescence intensity of the system may occur. Therefore, all fluorescence data were corrected using Formula (8) to eliminate the internal filtration effect.(8) Fcor=Fobse^(Aex+Aem)/2
# The evaluation of the interaction forces between porphyrin compounds and the two enzymes can be achieved by calculating thermodynamic parameters. When both ΔH^0 and ΔS^0 are positive, the predominant interaction force is hydrophobic. When both ΔH^0 and ΔS^0 are negative, the main forces are hydrogen bonding and van der Waals forces. When ΔH^0 < 0 and ΔS^0 > 0, the primary interaction is electrostatic attraction.
# The thermodynamic parameters were calculated using Formulas (9) and (10), and then the Van’t Hoff plot for the interactions between the porphyrin compounds and the two enzymes was generated by plotting lnKa on the Y-axis versus 1/T on the X-axis.(9) lnKa=−ΔH^0/RT+ΔS^0/R (10) ΔG^0=ΔH^0−TΔS^0=−RTlnKa
# [4] = target: T1, α-glucosidase; assay type: biochemical; settings: for type of inhibition of α-glucosidase: Lineweaver–Burk plots; for reversibility of inhibition of α-glucosidase: enzyme 100–400 U/L, substrate 5 mmol/L; for Kis: enzyme–substrate complex inhibition constant
# Description: (§2) In the experiment, the concentration of the fixed substrate Gal-G2-α-CNP/pNPG solution was 5 mmol/L, and the concentrations of the two enzymes (100, 200, 300, 400 U/L) were used to determine the effect of different concentrations of porphyrins on enzyme activity. The concentration of the enzyme was 200 U/L, and the concentration of the substrate Gal-G2-α-CNP/pNPG solution (2.5, 5, 7.5, 10 mmol/L) was used to determine the effect of different concentrations of porphyrins on the enzyme-catalyzed substrate activity.
# (§3) Upon identifying the type of inhibition, the kinetic equations vary for different inhibition types.
# (§4) In the formula, v, Vmax, Km, Ki, and Kis represent the reaction rate, maximum reaction rate, Michaelis constant, and free enzyme inhibition constant, respectively, and the binding enzyme inhibition constant. [S] denotes the substrate concentration. [I] denotes the inhibitor concentration.
# [5] = target: T2, α-amylase; assay: FTIR secondary structure analysis of α-AMY complexes; settings: enzyme–porphyrin molar ratio 1:2, amide I band
# Description: as §1
# [6] = target: T2, α-amylase; assay: Mode of α-AMY inhibition (reversibility, Lineweaver–Burk kinetics); assay type: biochemical; settings: for type of inhibition of α-amylase: Lineweaver–Burk plots; for reversibility of inhibition of α-amylase: enzyme 100–400 U/L, substrate 5 mmol/L
# Description: as §2, §3, §4
# [7] = free enzyme inhibition constant
# T1 sequence (P53341 whole entry): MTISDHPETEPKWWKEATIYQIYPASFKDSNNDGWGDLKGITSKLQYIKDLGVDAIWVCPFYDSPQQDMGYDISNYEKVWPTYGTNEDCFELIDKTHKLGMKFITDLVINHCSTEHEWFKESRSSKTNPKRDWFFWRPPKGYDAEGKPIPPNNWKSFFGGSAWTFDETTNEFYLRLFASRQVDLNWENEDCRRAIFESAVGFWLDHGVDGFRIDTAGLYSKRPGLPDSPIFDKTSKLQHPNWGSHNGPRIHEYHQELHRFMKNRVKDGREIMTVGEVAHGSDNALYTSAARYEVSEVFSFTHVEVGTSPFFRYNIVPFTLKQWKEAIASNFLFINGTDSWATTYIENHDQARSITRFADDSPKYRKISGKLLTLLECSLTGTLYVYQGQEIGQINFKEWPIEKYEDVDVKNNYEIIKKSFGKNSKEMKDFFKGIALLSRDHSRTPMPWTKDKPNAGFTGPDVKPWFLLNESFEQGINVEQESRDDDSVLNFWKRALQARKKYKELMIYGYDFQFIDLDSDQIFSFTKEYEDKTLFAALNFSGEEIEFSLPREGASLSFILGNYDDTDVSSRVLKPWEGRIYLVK
compound,measurement,setting,value
"O=C(O)c1ccc(-c2c3nc(c(-c4ccc(C(=O)O)cc4)c4ccc([nH]4)c(-c4ccc(C(=O)O)cc4)c4nc(c(-c5ccc(C(=O)O)cc5)c5ccc2[nH]5)C=C4)C=C3)cc1.[Ni+2] [Ni–TCPP, nickel (II) meso-tetra (4-carboxyphenyl) porphine]",Random Coil,[1],26.76 ± 0.07%
same,α-Helix,[1],19.75 ± 0.07%
same,β-Antiparallel,[1],1.88 ± 0.01%
same,β-Sheet,[1],13.68 ± 0.04%
same,β-Turn,[1],37.94 ± 0.10%
same,Peak 1 Fluorescence Intensity,[2],225.2
same,Peak 2 Fluorescence Intensity,[2],9.012
same,binding constants K,[3],(1.83 ± 0.01) × 10^5 L·mol^−1
same,quenching mechanism of α-glucosidase fluorescence,[3],static quenching
same,Ka (binding constant),[3]; T 298 K,2.34 ± 0.04 ×10^5 L/mol
same,Kq,[3]; T 298 K,17.73 ± 0.15 ×10^12 L/mol/s
same,Ksv,[3]; T 298 K,17.73 ± 0.15 ×10^4 L/mol
same,n (number of binding sites),[3]; T 298 K,1.03
same,ΔG^0,[3]; T 298 K,-7.321 ± 0.0311 kcal/mol
same,Ka (binding constant),[3]; T 304 K,2.09 ± 0.02 ×10^5 L/mol
same,Kq,[3]; T 304 K,14.23 ± 0.09 ×10^12 L/mol/s
same,Ksv,[3]; T 304 K,14.23 ± 0.09 ×10^4 L/mol
same,n (number of binding sites),[3]; T 304 K,1.04
same,ΔG^0,[3]; T 304 K,-7.4 ± 0.014 kcal/mol
same,Ka (binding constant),[3]; T 310 K,1.83 ± 0.01 ×10^5 L/mol
same,Kq,[3]; T 310 K,12.31 ± 0.08 ×10^12 L/mol/s
same,Ksv,[3]; T 310 K,12.31 ± 0.08 ×10^4 L/mol
same,n (number of binding sites),[3]; T 310 K,1.03
same,ΔG^0,[3]; T 310 K,-7.464 ± 0.017 kcal/mol
same,ΔH^0,[3],-3.786 ± 0.012 kcal/mol
same,ΔS^0,[3],49.67 ± 0.08 J/mol/k
same,Km,[4],3.0491 ± 0.0776 µg/mL and 3.3243 ± 0.0748 µg/mL and 3.5279 ± 0.0812 µg/mL and 3.8090 ± 0.1419 µg/mL and 4.1248 ± 0.0704 µg/mL
same,Vmax,[4]; C 5 μg/mL,0.1036 ± 0.0026 ΔOD/min
same,Vmax,[4]; C 7.5 μg/mL,0.0909 ± 0.0020 ΔOD/min
same,Vmax,[4]; C 10 μg/mL,0.0791 ± 0.0018 ΔOD/min
same,Vmax,[4]; C 15 μg/mL,0.0628 ± 0.0023 ΔOD/min
same,Vmax,[4]; C 25 μg/mL,0.0444 ± 0.0008 ΔOD/min
same,type of inhibition of α-glucosidase,[4],mixed type
same,reversibility of inhibition of α-glucosidase,[4],reversible inhibition
same,Kis,[4],9.2257 ± 0.0312 µg/mL
same,Ki,[4]; [7],3.8703 ± 0.0201 µg/mL
same,Random Coil,[5],21.40 ± 0.05%
same,α-Helix,[5],20.76 ± 0.06%
same,β-Antiparallel,[5],10.30 ± 0.03%
same,β-Sheet,[5],11.20 ± 0.02%
same,β-Turn,[5],36.33 ± 0.13%
same,Km,[6]; C 40 μg/mL,3.6229 ± 0.1082 µg/mL
same,Vmax,[6]; C 40 μg/mL,0.1456 ± 0.0043 ΔOD/min
same,Km,[6]; C 80 μg/mL,3.6134 ± 0.1167 µg/mL
same,Vmax,[6]; C 80 μg/mL,0.1238 ± 0.0040 ΔOD/min
same,Km,[6]; C 120 μg/mL,3.6072 ± 0.0593 µg/mL
same,Vmax,[6]; C 120 μg/mL,0.1032 ± 0.0017 ΔOD/min
same,Km,[6]; C 160 μg/mL,3.6027 ± 0.1141 µg/mL
same,Vmax,[6]; C 160 μg/mL,0.0901 ± 0.0029 ΔOD/min
same,Km,[6]; C 200 μg/mL,3.5987 ± 0.0938 µg/mL
same,Vmax,[6]; C 200 μg/mL,0.0799 ± 0.0021 ΔOD/min
same,type of inhibition of α-amylase,[6],non-competitive inhibition
same,reversibility of inhibition of α-amylase,[6],reversible inhibition
same,Ki,[6]; [7],157.9542 ± 0.1375 µg/mL
O=C(O)c1ccc(-c2c3nc(c(-c4ccc(C(=O)O)cc4)c4ccc([nH]4)c(-c4ccc(C(=O)O)cc4)c4nc(c(-c5ccc(C(=O)O)cc5)c5ccc2[nH]5)C=C4)C=C3)cc1 [TCPP],Random Coil,[1],22.15 ± 0.04%
same,α-Helix,[1],22.71 ± 0.05%
same,β-Antiparallel,[1],9.57 ± 0.02%
same,β-Sheet,[1],12.03 ± 0.02%
same,β-Turn,[1],33.54 ± 0.07%
same,Peak 1 Fluorescence Intensity,[2],461.6
same,Peak 2 Fluorescence Intensity,[2],58.06
same,binding constants K,[3],(0.97 ± 0.02) × 10^5 L·mol^−1
same,quenching mechanism of α-glucosidase fluorescence,[3],static quenching
same,Kq,[3]; T 298 K,7.45 ± 0.04 ×10^12 L/mol/s
same,Ksv,[3]; T 298 K,7.45 ± 0.04 ×10^4 L/mol
same,n (number of binding sites),[3]; T 298 K,1.30
same,ΔG^0,[3]; T 298 K,-8.368 ± 0.014 kcal/mol
same,Kq,[3]; T 304 K,4.90 ± 0.02 ×10^12 L/mol/s
same,Ksv,[3]; T 304 K,4.90 ± 0.02 ×10^4 L/mol
same,n (number of binding sites),[3]; T 304 K,1.19
same,ΔG^0,[3]; T 304 K,-7.651 ± 0.017 kcal/mol
same,Kq,[3]; T 310 K,4.22 ± 0.09 ×10^12 L/mol/s
same,Ksv,[3]; T 310 K,4.22 ± 0.09 ×10^4 L/mol
same,n (number of binding sites),[3]; T 310 K,1.07
same,ΔG^0,[3]; T 310 K,-7.075 ± 0.012 kcal/mol
same,ΔH^0,[3],-40.504 ± 0.0239 kcal/mol
same,ΔS^0,[3],−451.52 ± 0.12 J/mol/k
same,Vmax,[4]; C 5 μg/mL,0.1369 ± 0.0049 ΔOD/min
same,Vmax,[4]; C 25 μg/mL,0.1016 ± 0.0014 ΔOD/min
same,Vmax,[4]; C 50 μg/mL,0.0745 ± 0.0019 ΔOD/min
same,Vmax,[4]; C 100 μg/mL,0.0516 ± 0.0017 ΔOD/min
same,Vmax,[4]; C 150 μg/mL,0.0389 ± 0.0006 ΔOD/min
same,type of inhibition of α-glucosidase,[4],mixed type
same,reversibility of inhibition of α-glucosidase,[4],reversible inhibition
same,Kis,[4],52.5334 ± 0.1408 µg/mL
same,Random Coil,[5],19.84 ± 0.06%
same,α-Helix,[5],10.24 ± 0.02%
same,β-Antiparallel,[5],11.75 ± 0.03%
same,β-Sheet,[5],18.51 ± 0.05%
same,β-Turn,[5],39.66 ± 0.09%
same,Vmax,[6]; C 25 μg/mL,0.1046 ± 0.0025 ΔOD/min
same,Vmax,[6]; C 50 μg/mL,0.0872 ± 0.0014 ΔOD/min
same,Vmax,[6]; C 100 μg/mL,0.0709 ± 0.0018 ΔOD/min
same,Vmax,[6]; C 150 μg/mL,0.0583 ± 0.0021 ΔOD/min
same,Vmax,[6]; C 200 μg/mL,0.0496 ± 0.0007 ΔOD/min
same,type of inhibition of α-amylase,[6],mixed type
same,reversibility of inhibition of α-amylase,[6],reversible inhibition
same,Kis,[6]; enzyme–substrate complex inhibition constant,132.4382 ± 0.1403 µg/mL
